Results on one compound are retold here after US12419886B2, “Parenteral formulations and uses thereof” (Eustralis Pharmaceuticals Limited, priority 2018, dated 2025).

Data set [1] is described as follows: Solubility of Compound (Ia) 2HCl in water (ethanol also assessed). Format: physicochemical. As to the method: Ethanol was also assessed as part of this study.
The nature of data set [2]: Excipient compatibility, 14 days stability (HPLC assay and related substances). Format: physicochemical. To be noted: 25° C./60% RH and 40° C./75% RH. As to the method: The successful formulation characteristics of a solution are its solubility and stability. The solvent system chosen must also be able to solubilise the drug at the desired concentration and must provide an environment where the drug has sufficient chemical stability. This study is an initial comparison of 2 weeks stability with potential excipients, and the % degradation was assessed. The excipients assessed are those typically found in liquid and freeze dried formulations. Excipient compatibility was investigated by subjecting a series of mixes containing active and excipient to elevated temperature for a nominated period and monitoring any degradation.
The solutions that were soluble in Table 3 were also prepared using Kolliphor 400 mg/mL in water and with Tween 80 as a solubiliser. These solutions were placed on stability at 25° C./60% RH and 40° C./75% RH for 14 days. The formulations was assessed for assay and related substances after 14 days of storage. Refer to Table 4 and 5 for the results.

Each structure is given as a SMILES string.

In the case of `Cc1ccccc1-c1cc(N2CCN(C)CC2)ncc1C(=O)N(C)Cc1cc(C(F)(F)F)cc(C(F)(F)F)c1` [Compound (Ia) 2HCl], the “pH of solution in water” value in data set [1] (5 mg/mL) came out at 2.39; in data set [1] (10 mg/mL), 2.14; in data set [1] (15 mg/mL), 2.02; in data set [1] (20 mg/mL), 1.87; in data set [1] (25 mg/mL), 1.81; in data set [1] (30 mg/mL), 1.75. In addition, the “pH of solution in water” value is 1.72 in data set [1] (35 mg/mL), 1.66 in data set [1] (40 mg/mL), 1.54 in data set [1] (45 mg/mL) and 1.52 in data set [1] (50 mg/mL). For the same compound, the “Result (solubility in water)” value is “Very soluble” in data set [1] (5 mg/mL (50 mg in 10 mL water)); “Very soluble” in data set [1] (10 mg/mL (100 mg in 10 mL water)); “Soluble” in data set [1] (15 mg/mL (150 mg in 10 mL water)); “Soluble” in data set [1] (20 mg/mL (200 mg in 10 mL water)); “Soluble” in data set [1] (25 mg/mL (250 mg in 10 mL water)); “Soluble” in data set [1] (30 mg/mL (300 mg in 10 mL water)). The “Result (solubility in water)” value in data set [1] (35 mg/mL (350 mg in 10 mL water)), in data set [1] (40 mg/mL (400 mg in 10 mL water)), in data set [1] (45 mg/mL (450 mg in 10 mL water)) and in data set [1] (50 mg/mL (500 mg in 10 mL water)) was “Soluble” each time. In addition, the Solubility entry in data set [1] (50 mg/mL, sentence follows mention of ethanol) is recorded as “freely soluble”. Also, the “Stability in a range of formulations (conclusion)” value in data set [2] is listed as “quite stable”.
